For assay [1], the target named is T1, human Cot catalytic domain (30-397 amino acids) (Homo sapiens, UniProt P41279).
T1 construct: Purified recombinant human Cot catalytic domain (30-397 amino acids) was purchased from Cama Biosciences; purchased Cama Biosciences (so in the source)
The assay can be described thus: High Throughput Cot Biochemical Assay (KinEASE TR-FRET). Particulars: read-out: IC50 HTRF. The method, boiled down: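 Phosphorylation of 1 μM XL665-STK3 peptide by 5 nM Cot catalytic domain was measured by time-resolved FRET using a europium […] antibody. ATP was 400 μM; buffer was 10 mM MOPS pH 7.0 with Mg2+ and DTT.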

Assay [2] deals with TNFα production in LPS-stimulated human monocytes. The assay can be described thus: Cot Monocyte TNFα Cell Based Assay. Particulars: Homo sapiens, Monocyte, read-out: EC50 TNF. The method, boiled down: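 Percent-of-control values derive from TR-FRET ratios of TNFα in spun-down media, referenced to unstimulated and LPS-stimulated wells. Exposure: 1 h compound preincubation, then 50 pg/ml LPS for 4 h, both at 37 °C, with 0.5% final DMSO.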

Where [3] appears, read: Cot KinEASE TR-FRET (HTRF) biochemical assay, 400 μM ATP.
[4] abbreviates: TNFα in LPS-stimulated human monocytes.
Setting [5] is: Cot biochemical HTRF (KinEASE TR-FRET) assay.
Setting [6] is: Cot KinEASE TR-FRET, 400 μM ATP.
The mark [7] stands for this setting: LPS-stimulated human monocytes, TNFα TR-FRET.

Each structure is given as a SMILES string. Like-named read-outs stand apart in the source and are kept apart here. Some results are limits rather than exact numbers.

T1 sequence (P41279 30-397): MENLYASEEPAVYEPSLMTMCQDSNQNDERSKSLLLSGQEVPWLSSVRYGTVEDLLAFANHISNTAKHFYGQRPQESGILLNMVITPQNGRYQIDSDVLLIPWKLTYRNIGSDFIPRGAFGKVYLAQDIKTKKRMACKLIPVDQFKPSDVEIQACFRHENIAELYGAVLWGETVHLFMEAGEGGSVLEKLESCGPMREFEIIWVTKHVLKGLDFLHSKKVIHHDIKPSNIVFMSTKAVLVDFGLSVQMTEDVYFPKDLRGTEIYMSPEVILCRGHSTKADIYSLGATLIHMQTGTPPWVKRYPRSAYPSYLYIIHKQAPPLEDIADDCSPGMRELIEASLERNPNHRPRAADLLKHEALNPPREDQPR

As for `[2H][C@](Nc1cc(Cl)c2ncc(C#N)c(Nc3ccc(F)c(Cl)c3)c2c1)(c1ccc(F)cc1)c1cn(CC(=O)O)nn1` [Example 116, (S)-2-(4-(((8-chloro-4-((3-chloro-4-fluorophenyl)amino)-3-cyanoquinolin-6-yl)amino)(4-fluorophenyl)methyl-d)-1H-1,2,3-triazol-1-yl)acetic acid], the IC50 in assay [1] (setting [3]) amounted to 14 nM. Further, the EC50 in assay [2] (setting [4]) was more than 10000 nM.
For `CC1(n2cc([C@@H](Nc3cc(Cl)c4ncc(C#N)c(N[C@H](CCC#N)c5ccccc5)c4c3)c3ccccc3Cl)nn2)CC1` [Example 72, 8-chloro-6-(((S)-(2-chlorophenyl)(1-(1-methylcyclopropyl)-1H-1,2,3-triazol-4-yl)methyl)amino)-4-(((R)-3-cyano-1-phenylpropyl)amino)quinoline-3-carbonitrile] the same measures were 2 nM and 66 nM.
`CC1CC(Nc2c(C#N)cnc3c(Cl)cc(N[C@@H](c4ccccc4)c4cn(C5CCN(C(C)(C)C)CC5)nn4)cc23)CC(C)O1` (stereo partly drawn) [Example 509, 6-(((S)-(1-(1-(tert-butyl)piperidin-4-yl)-1H-1,2,3-triazol-4-yl)(phenyl)methyl)amino)-8-chloro-4-((2,6-dimethyltetrahydro-2H-pyran-4-yl)amino) quinoline-3-carbonitrile]: the concentration for half-maximal inhibition (IC50) in assay [1] (setting [5]) was found to be 206 nM. Moreover, the concentration giving a half-maximal response (EC50) in assay [2] (setting [4]) is 2990 nM.
Turning to `N#Cc1cnc2c(Cl)cc(N[C@@H](c3ccc(F)cc3)c3cn(C4CCOCC4)nn3)cc2c1Nc1cnc(F)c(F)c1` [Example 380, (S)-8-chloro-4-((5,6-difluoropyridin-3-yl)amino)-6-(((4-fluorophenyl) (1-(tetrahydro-2H-pyran-4-yl)-1H-1,2,3-triazol-4-yl)methyl)amino)quinoline-3-carbonitrile], the 50% inhibitory concentration (IC50) in assay [1] (setting [3]) was 78 nM. Besides, in assay [2] (setting [4]), the EC50 turned out to be 1280 nM.
As to `CC(C)(C)CNc1c(C#N)cnc2c(F)cc(N[C@H](c3cn(C4(C#N)CC4)nn3)c3ccccc3Cl)cc12` [Example 1000, (S)-6-(((2-chlorophenyl)(1-(1-cyanocyclopropyl)-1H-1,2,3-triazol-4-yl)methyl)amino)-8-fluoro-4-(neopentylamino)quinoline-3-carbonitrile], in assay [1] (setting [6]), the 50% inhibitory concentration (IC50) was 58 nM. Also, the concentration giving a half-maximal response (EC50) in assay [2] (setting [7]) worked out at 177 nM.
For `Cc1c(-c2ncco2)cccc1[C@H](Nc1cc(C#N)c2ncc(C#N)c(NCC(C)(C)C)c2c1)c1cn(C2(C(F)F)CC2)nn1` [Example 1056, (S)-6-(((1-(1-(difluoromethyl)cyclopropyl)-1H-1,2,3-triazol-4-yl)(2-methyl-3-(oxazol-2-yl)phenyl)methyl)amino)-4-(neopentylamino)quinoline-3,8-dicarbonitrile], in assay [1] (setting [6]), the 50% inhibitory concentration (IC50) turned out to be 2 nM. Besides, in assay [2] (setting [7]), the EC50 was found to be 63 nM.
As for `Cc1ccccc1[C@H](Nc1cc(Cl)c2ncc(C#N)c(NCC(C)(C)C)c2c1)c1cn(C2CC2)nn1` [Compound 3], the IC50 in assay [1] (setting [3]) is 7 nM. The EC50 in assay [2] (setting [4]) was determined as 246 nM.
In the case of `CC(C)(C)CNc1c(C#N)cnc2c(Cl)cc(N[C@H](c3cn(C4CC4)nn3)c3ccccc3OC(F)(F)F)cc12` [Example 122, (S)-8-chloro-6-(((1-cyclopropyl-1H-1,2,3-triazol-4-yl)(2-(trifluoromethoxy)phenyl)methyl)amino)-4-(neopentylamino) quinoline-3-carbonitrile], the IC50 in assay [1] (setting [3]) was 19 nM. For the same compound, the EC50 in assay [2] (setting [4]) stood at 201 nM.
As to `[2H][C@](Nc1cc(C#N)c2ncc(C#N)c(NCC(C)(C)C)c2c1)(c1cccc(C#N)c1)c1cn(-c2cccnc2)nn1` [Example 1005, (S)-6-(((3-cyanophenyl)(1-(pyridin-3-yl)-1H-1,2,3-triazol-4-yl)methyl-d)amino)-4-(neopentylamino) quinoline-3,8-dicarbonitrile], in assay [1] (setting [6]), the IC50 was not below 10000 nM. The EC50 in assay [2] (setting [7]) was not below 1000 nM.
On to `CC[C@@H](Nc1c(C#N)cnc2c(Cl)cc(N[C@@H](c3cccc(C(=O)N4CC(F)C4)c3)c3c[nH]nn3)cc12)c1ccccc1` [Example 562, 8-chloro-6-(((S)-(3-(3-fluoroazetidine-1-carbonyl)phenyl)(1H-1,2,3-triazol-4-yl)methyl)amino)-4-(((R)-1-phenylpropyl)amino)quinoline-3-carbonitrile], for which the half-inhibitory concentration (IC50) in assay [1] (setting [5]) is 4 nM. The concentration giving a half-maximal response (EC50) in assay [2] (setting [4]) turned out to be 848 nM.
`[2H]C(Nc1cc(Cl)c2ncc(C#N)c(NC3C4CCCC43)c2c1)(c1ccc(F)cc1)c1cn(C2CC2)nn1` (stereo in doubt) [Example 242, 4-(bicyclo[3.1.0]hexan-6-ylamino)-8-chloro-6-(((S)-(1-cyclopropyl-1H-1,2,3-triazol-4-yl)(4-fluorophenyl)methyl-d)amino)quinoline-3-carbonitrile]: in assay [1] (setting [3]), the half-inhibitory concentration (IC50) was determined as 8 nM. In assay [2] (setting [4]), the EC50 amounted to 270 nM.
In the case of `CC(C)(C)N1CCC(n2cc([C@@H](Nc3cc(Cl)c4ncc(C#N)c(Nc5c(F)cccc5F)c4c3)c3ccc(Cl)cc3)nn2)CC1` [Example 653, (S)-6-(((1-(1-(tert-butyl)piperidin-4-yl)-1H-1,2,3-triazol-4-yl)(4-chlorophenyl)methyl)amino)-8-chloro-4-((2,6-difluorophenyl)amino)quinoline-3-carbonitrile], the IC50 in assay [1] (setting [5]) was determined as 160 nM. Besides, the EC50 in assay [2] (setting [4]) came to 9280 nM.
Take `N#Cc1cnc2c(Cl)cc(N[C@@H](c3ccccc3)c3cn([C@@H]4CCNC[C@@H]4F)nn3)cc2c1Nc1ccc(F)c(Cl)c1` [Example 685, 8-chloro-4-((3-chloro-4-fluorophenyl)amino)-6-(((S)-(1-((3S,4R)-3-fluoropiperidin-4-yl)-1H-1,2,3-triazol-4-yl)(phenyl)methyl)amino) quinoline-3-carbonitrile]: the half-inhibitory concentration (IC50) in assay [1] (setting [5]) is 16 nM. In addition, in assay [2] (setting [4]), the concentration for a half-maximal effect (EC50) was found to be 359 nM.
As for `CC(C)(C)CNc1c(C#N)cnc2c(C#N)cc(N[C@@H](c3ccc(F)cc3)c3cn(C45CC(C4)C5)nn3)cc12` [Example 1130, (S)-6-(((1-(bicyclo[1.1.1]pentan-1-yl)-1H-1,2,3-triazol-4-yl)(4-fluorophenyl)methyl)amino)-4-(neopentylamino)quinoline-3,8-dicarbonitrile], the IC50 in assay [1] (setting [6]) worked out at 10 nM. In assay [2] (setting [7]), the EC50 came to 103 nM.
On to `[2H][C@](Nc1cc(Cl)c2ncc(C#N)c(NCC[Si](C)(C)C)c2c1)(c1ccc(F)cc1)c1cn(C2CC2)nn1` [Example 237, (S)-8-chloro-6-(((1-cyclopropyl-1H-1,2,3-triazol-4-yl)(4-fluorophenyl)methyl-d)amino)-4-((2-(trimethylsilyl)ethyl)amino) quinoline-3-carbonitrile], for which the IC50 in assay [1] (setting [3]) was 231 nM. Further, the EC50 in assay [2] is 5120 nM.
For `[2H][C@](Nc1cc(Cl)c2ncc(C#N)c(NC(CC)Cc3ccccc3)c2c1)(c1ccc(F)cc1)c1cn(C2CC2)nn1` (stereo partly drawn) [Example 175, 8-chloro-6-(((S)-(1-cyclopropyl-1H-1,2,3-triazol-4-yl)(4-fluorophenyl)methyl-d)amino)-4-((1-phenylbutan-2-yl)amino)quinoline-3-carbonitrile], in assay [1] (setting [3]), the 50% inhibitory concentration (IC50) came out at 280 nM. For the same compound, the concentration for a half-maximal effect (EC50) in assay [2] (setting [4]) was 5920 nM.
`CC(C)n1cc([C@@H](Nc2cc(Cl)c3ncc(C#N)c(Nc4cnc(F)c(F)c4)c3c2)c2ccc(F)cc2)nn1` [Example 458, (S)-8-chloro-4-((5,6-difluoropyridin-3-yl)amino)-6-(((4-fluorophenyl)(1-isopropyl-1H-1,2,3-triazol-4-yl)methyl)amino)quinoline-3-carbonitrile]: the IC50 in assay [1] (setting [5]) was 17 nM. For the same compound, the EC50 in assay [2] (setting [4]) was found to be 598 nM.
In the same order, the values of `CC(C)(C)N1CCC(n2cc([C@@H](Nc3cc(Cl)c4ncc(C#N)c(NCC5CCCCC5)c4c3)c3ccccc3)nn2)CC1` [Example 602, (S)-6-(((1-(1-(tert-butyl)piperidin-4-yl)-1H-1,2,3-triazol-4-yl)(phenyl)methyl)amino)-8-chloro-4-chloro-4-((cyclohexylmethyl)amino) quinoline-3-carbonitrile] are 77 nM and 3050 nM.
For the compound `Cn1ccc(CNc2c(C#N)cnc3c(Cl)cc(N[C@@H](c4ccccc4)c4cn(C5CCN(C(C)(C)C)CC5)nn4)cc23)n1` [Example 476, (S)-6-(((1-(1-(tert-butyl)piperidin-4-yl)-1H-1,2,3-triazol-4-yl)(phenyl)methyl)amino)-8-chloro-4-(((1-methyl-1H-pyrazol-3-yl)methyl)amino)quinoline-3-carbonitrile], the IC50 in assay [1] (setting [5]) amounted to 1740 nM. In addition, the EC50 in assay [2] (setting [4]) was more than 10000 nM.
`CC(C)(C)CNc1c(C#N)cnc2c(C#N)cc(N[C@H](c3cn(C4(C#N)CC4)nn3)c3ccccc3CO)cc12` [Example 1026, (S)-6-(((1-(1-cyanocyclopropyl)-1H-1,2,3-triazol-4-yl)(2-(hydroxymethyl)phenyl)methyl)amino)-4-(neopentylamino)quinoline-3,8-dicarbonitrile]: in assay [1] (setting [6]), the IC50 is 7 nM. For the same compound, the EC50 in assay [2] (setting [7]) turned out to be 371 nM.
In the case of `[2H][C@](Nc1cc(Cl)c2ncc(C#N)c(Nc3ccc(Cl)c(Cl)c3F)c2c1)(c1ccccc1)c1c[nH]nn1` [Example 463, (S)-8-chloro-4-((3,4-dichloro-2-fluorophenyl)amino)-6-((phenyl(1H-1,2,3-triazol-4-yl)methyl-d)amino)quinoline-3-carbonitrile], the 50% inhibitory concentration (IC50) in assay [1] (setting [5]) was 144 nM. For the same compound, in assay [2] (setting [4]), the EC50 was found to be 1410 nM.

Values taken from patent publication US10316017B2, “COT modulators and methods of use thereof” (Gilead Sciences, Inc., priority 2015, dated 2019).
